# “And” between values parts separate entries of the source, which are not always exact repeats. Equal entries are not always repeated. Residues, ends and D or L forms follow the SMILES beside them.
# Target: T1, TPP II (Mus musculus, UniProt Q64514)
# T1 construct: 1 ug of high molecular weight protein was used as enzyme in peptidase assays; endogenous in cells
# Assay: TPP II peptidase assay: cleavage of fluorogenic substrate AAF-AMC by enriched TPP II
# Assay type: biochemical
# Conditions: for cleavage of AAF-AMC in presence of compound, mean: mean of 3 readings; for cleavage of AAF-AMC in presence of compound: single reading
# Description: In one non-limiting example of purification of TPP II, 100×10^6 cells (such as EL-4 cells) were sedimented and lysed by vortexing in glass beads and homogenisation buffer (50 mM Tris Base pH 7.5, 250 mM Sucrose, 5 mM MgCl2, 1 mM DTT). Cellular lysates were subjected to differential centrifugation; first the cellular homogenate was centrifuged at 14,000 rpm for 15 min, and then the supernatant was transferred to ultra-centrifugation tubes. Next the sample was ultra-centrifugated at 100,000×g for 1 hour, and the supernatant (denoted as cytosol in most biochemical literature) was subjected to 100,000×g centrifugation for 5 hours, which sedimented high molecular weight cytosolic proteins/protein complexes. The resulting pellet dissolved in 50 mM Tris Base pH 7.5, 30% Glycerol, 5 mM MgCl2, and 1 mM DTT, and 1 ug of high molecular weight protein was used as enzyme in peptidase assays.
# It is possible to test the activity of TPP II using for example the substrate AAF-AMC (Sigma, St. Louis, Mo.). This may for example be used at 100 uM concentration in 100 ul of test buffer composed of 50 mM Tri Base pH 7.5, 5 mM MgCl2 and 1 mM DTT. It is possible to stop reactions using dilution with 900 ul 1% SDS solution. Cleavage activity may be measured for example by emission at 460 nm in a LS50B Luminescence Spectrometer (Perkin Elmer, Boston, Mass.).
# Protein Purification, Peptidase Assays and Analysis of DNA Fragmentation. 100×10^6 cells were sedimented and lysed by vortexing in glass beads and homogenisation buffer (50 mM Tris Base pH 7.5, 250 mM Sucrose, 5 mM MgCl2, 1 mM DTT). Cellular lysates were submitted to differential centrifugation where a supernatant from a 1 hour centrifugation at 100,000×g (cytosol) was submitted to 100,000×g centrifugation for 3-5 hours, which sedimented high molecular weight cytosolic proteins/protein complexes. The resulting pellet dissolved in 50 mM Tris Base pH 7.5, 30% Glycerol, 5 mM MgCl2, and 1 mM DTT, and 1 micro-g of high molecular weight protein was used as enzyme in peptidase assays or in Western blotting for TPP II expression. To test the activity of TPP II we used the substrate AAF-AMC (Sigma, St. Louis, Mo.), at 100 micro-M concentration in 100 micro-l of test buffer composed of 50 mM Tri Base pH 7.5, 5 mM MgCl2 and 1 mM DTT. Cleavage activity was measured by emission at 460 nm in a LS50B Luminescence Spectrometer (Perkin Elmer, Boston, Mass.). For analysis of DNA fragmentation cells were seeded in 12-well plates at 10^6 cells/ml and exposed to 25 micro-M etoposide, a DNA topoisomerase II inhibitor commonly used as an apoptosis-inducing agent, to starvation (50% PBS). Cells were seeded at 10^6 cells/ml in 12-well plates and incubated for the indicated times, usually 18-24 hours. DNA from EL-4 control and adapted cells was purified by standard chloroform extraction, and 2.5 micro-g of DNA was loaded on 1.8% agarose gel for detection of DNA from apoptotic cells.
# TPP II protein was enriched, and then a TPP II-preferred fluorogenic substrate AAF-AMC was used. 100×10^6 cells were sedimented and lysed by vortexing in glass beads and homogenisation buffer (50 mM Tris Base pH 7.5, 250 mM Sucrose, 5 mM MgCl2, 1 mM DTT). Cellular lysates were subjected to differential centrifugation; first the cellular homogenate was centrifuged at 14,000 rpm for 15 min, and then the supernatant was transferred to ultra-centrifugation tubes. Next the sample was ultra-centrifugated at 100,000×g for 1 hour, and the supernatant (denoted as cytosol in most biochemical literature) was subjected to 100,000×g centrifugation for 5 hours, which sedimented high molecular weight cytosolic proteins/protein complexes.
# T1 sequence (Q64514 2-1262 limits assumed): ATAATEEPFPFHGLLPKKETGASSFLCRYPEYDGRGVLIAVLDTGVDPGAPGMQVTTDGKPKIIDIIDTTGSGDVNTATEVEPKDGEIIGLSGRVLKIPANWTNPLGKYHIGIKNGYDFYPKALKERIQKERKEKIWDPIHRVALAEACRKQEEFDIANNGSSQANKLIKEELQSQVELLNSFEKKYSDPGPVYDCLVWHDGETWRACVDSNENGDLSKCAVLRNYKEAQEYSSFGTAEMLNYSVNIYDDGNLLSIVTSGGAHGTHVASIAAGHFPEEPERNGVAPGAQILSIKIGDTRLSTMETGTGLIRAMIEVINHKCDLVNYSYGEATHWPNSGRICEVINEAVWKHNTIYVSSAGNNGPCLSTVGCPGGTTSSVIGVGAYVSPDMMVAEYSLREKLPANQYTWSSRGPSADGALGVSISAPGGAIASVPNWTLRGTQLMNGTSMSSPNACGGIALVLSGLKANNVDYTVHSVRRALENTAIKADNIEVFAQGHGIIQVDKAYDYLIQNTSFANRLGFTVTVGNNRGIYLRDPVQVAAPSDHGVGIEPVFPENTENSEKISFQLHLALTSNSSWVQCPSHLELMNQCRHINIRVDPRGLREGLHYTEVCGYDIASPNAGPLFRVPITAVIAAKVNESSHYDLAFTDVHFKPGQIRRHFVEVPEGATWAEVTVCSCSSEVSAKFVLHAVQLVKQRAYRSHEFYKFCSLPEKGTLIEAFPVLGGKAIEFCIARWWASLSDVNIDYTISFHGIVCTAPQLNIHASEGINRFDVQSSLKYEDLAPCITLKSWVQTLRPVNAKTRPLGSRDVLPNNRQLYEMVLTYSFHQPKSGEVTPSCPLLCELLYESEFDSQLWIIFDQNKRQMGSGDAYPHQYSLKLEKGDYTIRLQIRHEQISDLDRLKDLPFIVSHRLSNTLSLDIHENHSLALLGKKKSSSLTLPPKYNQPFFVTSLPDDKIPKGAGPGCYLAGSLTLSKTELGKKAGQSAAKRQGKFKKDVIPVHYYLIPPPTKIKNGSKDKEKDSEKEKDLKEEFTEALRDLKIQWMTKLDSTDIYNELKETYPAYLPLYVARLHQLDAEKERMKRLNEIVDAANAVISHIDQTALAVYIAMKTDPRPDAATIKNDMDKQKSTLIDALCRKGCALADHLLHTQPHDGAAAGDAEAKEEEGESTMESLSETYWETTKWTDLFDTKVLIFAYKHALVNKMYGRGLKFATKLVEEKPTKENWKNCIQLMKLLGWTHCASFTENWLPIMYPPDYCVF
structure (smiles),measurement,setting,value
"CC(C)C[C@H](NC(=O)CNC(=O)OCc1ccccc1)C(=O)N[C@@H](C)C(=O)O [Z-GLA-OH, Z-Gly-Leu-Ala-OH] (HELM PEPTIDE1{[O=C(OCc1ccccc1)[*:2]].G.L.A}$$$$V2.0)","TPPII inhibition, in words",,efficiently inhibited TPPII
same,"cleavage of AAF-AMC in presence of compound, mean",compound 1 nM,32.85 fluorometric units
same,cleavage of AAF-AMC in presence of compound,compound 1 nM,32.54 fluorometric units and 32.61 fluorometric units and 33.41 fluorometric units
same,"cleavage of AAF-AMC in presence of compound, mean",compound 10 nM,22.70 fluorometric units
same,cleavage of AAF-AMC in presence of compound,compound 10 nM,21.74 fluorometric units and 21.93 fluorometric units and 24.44 fluorometric units
same,"cleavage of AAF-AMC in presence of compound, mean",compound 100 nM,14.35 fluorometric units
same,cleavage of AAF-AMC in presence of compound,compound 100 nM,14.43 fluorometric units and 14.26 fluorometric units and 14.37 fluorometric units
same,"cleavage of AAF-AMC in presence of compound, mean",compound 1 uM,11.60 fluorometric units
same,cleavage of AAF-AMC in presence of compound,compound 1 uM,11.43 fluorometric units and 11.9 fluorometric units and 11.46 fluorometric units
same,"cleavage of AAF-AMC in presence of compound, mean",compound 10 uM,7.21 fluorometric units
same,cleavage of AAF-AMC in presence of compound,compound 10 uM,6.47 fluorometric units and 7.66 fluorometric units and 7.49 fluorometric units
same,"cleavage of AAF-AMC in presence of compound, mean",compound 100 uM,1.38 fluorometric units
same,cleavage of AAF-AMC in presence of compound,compound 100 uM,1.14 fluorometric units and 1.44 fluorometric units and 1.55 fluorometric units
same,Ki,"partially purified TPPII enzyme, fluorimetry, read-out: Ki50, inhibited TPPII cleavage of the substrate AAF-AMC",~10 nM

# From patent US20100168038A1, “USE OF COMPOUNDS IN COMBINATION WITH GAMMA-IRRADIATION FOR THE TREATMENT OF CANCER” (priority 2006, published 2010)
